From publication PMC12525728, “Safety, Pharmacokinetics, Translational and Molecular Mechanistic Insights on the Prostate Cancer Recurrence Suppressor Pseurotin A” (Molecules, 2025)
“And” between values parts separate entries of the source, which are not always exact repeats. Identical values can stand only once. Like-named read-outs stand apart in the source and are kept apart here.

Assays:
mCRPC CWR-R1ca-Luc cells = assay: mCRPC recurrence prevention study after neoadjuvant DTX and ENZ and primary tumor excision; assay type: in vivo, athymic male nude mice; details: 60 days
Description: For the recurrence prevention study, nineteen 7–8-week-old athymic male nude mice (Strain Foxn^nu-Foxn^1+) were xenografted with 2 × 10^6 the mCRPC CWR-R1ca-Luc cells at the suprascapular region in 100 µL 1:1 serum-free Dulbecco’s Modified Eagle Medium (DMEM) medium-Matrigel. Mice were fed on an HFD (11.4% total fat, Cat# 7004, Envigo/Teklad, Madison, WI, USA) for 7 days before the tumor cells xenografting. When the tumors reached 100 mm^3, mice were subjected to weekly IV injections of 10 mg/kg docetaxel (DTX) (Combi-Blocks, San Diego, CA, USA) dissolved in Tween 80 (20 mg/mL) for four consecutive weeks, followed by daily IP injections of 5 mg/kg ENZ (Combi-Blocks, San Diego, CA, USA) in sterile PBS for three weeks. Following these neoadjuvant regimens, mice were randomly selected and placed into three groups. Groups 1 (n = 7) received daily oral doses of 20 mg/kg PsA (prepared in sterile PBS-DMSO 925:75). Group 2 (n = 5) received daily oral PsA 10 mg/kg. Group 3 (n = 7) received daily oral doses of PsA-free vehicle control. Treatments continued for 60 days. Isoflurane-anesthetized mice were subjected to weekly tumor monitoring using PerkinElmer IVIS Lumina Series III (Waltham, MA, USA) 30 min after an IP injection of (+)-luciferin (75 mg/kg, IP, PerkinElmer, Waltham, MA, USA) for efficiency assessment of excision surgery, tumor progression, and tumor metastasis. Following treatment regimen completion, mice were anesthetized using isoflurane (USP-vaporizer method, Matrix VIP-3000), exposure of animals in an anesthesia chamber at 3% isoflurane vaporization rate. Exposure time 2 min. Mice were then euthanized by cervical dislocation according to the American Veterinary Medical Association (AVMA) Guidelines for the Euthanasia of Animals: 2020 Edition, and tumors were collected. Tumors were snap frozen using Isopentane (J.T. Baker, Radnor, PA, USA) in liquid nitrogen before storage at −80 °C.

[1] = Pharmacokinetics study in Swiss albino mice; assay type: in vivo; details: following oral dosing
[2] = Pharmacokinetics study in Swiss albino mice; assay type: in vivo; details: for C0 / AUC(0-t): iv, 50 mg/kg
Description: Five µL of the IS ([…]) and 20 µL of 50, 40, 30, 20, 10, 8, and 4 µg/mL PsA standard solutions were combined with 15 µL freshly extracted blank mouse plasma. 300 µL of a 70% EtOAc/30% isopropanol mixture was added and vortexed for 30 s. Following centrifugation at 15,000× g for 10 min, the supernatant was transferred to a 2 mL Eppendorf tube for nitrogen evaporation. The residues were reconstituted in 25 µL HPLC-grade MeOH before being subjected to 30 s sonication followed by centrifugation at 15,000× g for 10 min. Afterwards, the entire sample was immediately injected for RP-HPLC analysis. The mouse plasma samples used in the PK study were subjected to the same extraction method, minus the addition of the PsA standard solutions. After weighing, each mouse organ was reconstituted in 500 µL PBS, then homogenized using the MISONIX Sonicator (Division of QSonica LLC, Newtown, CT, USA). Samples were centrifuged at 15,000× g for 10 min, and the supernatant was collected and transferred to a 2 mL Eppendorf. About 5 µL of IS (25 µL/mL) and 300 µL of a 70% EtOAc/30% isopropanol mixture were added to 100 µL of supernatant and vortexed for 30 s. Following centrifugation at 15,000× g for 10 min, the supernatant was transferred to a 2 mL Eppendorf tube and evaporated under N2. The remains were reconstituted in 40 µL HPLC-grade methanol before being subjected to 30 s sonication followed by centrifugation at 15,000× g for 10 min.
The mean plasma concentration-time curve was plotted using GraphPad Prism software version 8.0.2 (La Jolla, CA, USA). PK parameters were obtained through non-compartmental analysis following intravenous bolus input using PK Solver 2.0 [52].
For the PKs study, twelve male and twelve female healthy Swiss albino mice were randomly selected and placed in 3 groups (n = 4/sex/group). The mice received free access to drinking water and pelleted regular rodent chow (5% fat content, Cat# 7012, Envigo/Teklad, Madison, WI, USA) until the day before experimentation, after which they were fasted for 8 h and allowed only free access to drinking water. Mice were administered PsA formulated in sterile PBS-DMSO (925:75) + 0.2% Tween 80 at a volume not exceeding 100 µL intravenously through recto-orbital injection. Each animal was anaesthetized using Isoflurane (Piramal Critical Care Inc., Bethlehem, PA, USA) for 1–2 min before injection. Disposable sterilized syringes (Becton, Dickinson and Company, Franklin Lakes, NJ, USA) were used for blood collection as well as administration of PsA at a dose of 50 mg/kg and volume, adjusted to the mouse body weight, no greater than 100 µL for animal safety considerations. Blood samples of around 50–70 µL were collected through the tail vein in 600 µL Eppendorf tubes at time points 0.25, 0.75, and 1.5 h for groups 1 and 4, 0.083, 0.5, and 1 h for groups 2 and 5, in addition to 2 and 4 h for groups 3 and 6 following intravenous injection and subjected to immediate centrifugation. From the plasma, 15 µL was transferred into clean 600 µL Eppendorf tubes and immediately subjected to the extraction method listed above and analyzed using HPLC.

Swiss albino mice = tested on: Swiss albino mice; parameters: method as in PMID 36771126; details: cited from earlier work

For `CC/C=C\[C@H](O)[C@H](O)C1=C(C)C(=O)[C@]2(O1)C(=O)N[C@@](OC)(C(=O)c1ccccc1)[C@@H]2O` [PsA, pseurotin A], the “Distant recurrence Backbone, affected mice per group” value (mCRPC CWR-R1ca-Luc cells; PsA 10 mg/kg daily oral, n = 5) was 1/5, the “Distant recurrence Brain, affected mice per group” value (mCRPC CWR-R1ca-Luc cells; PsA 10 mg/kg daily oral, n = 5) was 2/5 and the “Distant recurrence Femur, affected mice per group” value (mCRPC CWR-R1ca-Luc cells; PsA 10 mg/kg daily oral, n = 5) was 1/5. For the same compound, the “Distant recurrence Heart, affected mice per group” value (mCRPC CWR-R1ca-Luc cells; PsA 10 mg/kg daily oral, n = 5) was 1/5, the “Distant recurrence Kidney, affected mice per group” value (mCRPC CWR-R1ca-Luc cells; PsA 10 mg/kg daily oral, n = 5) was 0/5 and the “Distant recurrence Liver, affected mice per group” value (mCRPC CWR-R1ca-Luc cells; PsA 10 mg/kg daily oral, n = 5) was 1/5. The “Distant recurrence Lung, affected mice per group” value (mCRPC CWR-R1ca-Luc cells; PsA 10 mg/kg daily oral, n = 5) was 1/5, the “Distant recurrence Spleen, affected mice per group” value (mCRPC CWR-R1ca-Luc cells; PsA 10 mg/kg daily oral, n = 5) was 1/5 and the “Locoregional recurrence, affected mice per group” value (mCRPC CWR-R1ca-Luc cells; PsA 10 mg/kg daily oral, n = 5) was “one and 1/5”. The “Distant recurrence Backbone, affected mice per group” value (mCRPC CWR-R1ca-Luc cells; PsA 20 mg/kg daily oral, n = 7) was 0/7, the “Distant recurrence Brain, affected mice per group” value (mCRPC CWR-R1ca-Luc cells; PsA 20 mg/kg daily oral, n = 7) was 2/7 and the “Distant recurrence Femur, affected mice per group” value (mCRPC CWR-R1ca-Luc cells; PsA 20 mg/kg daily oral, n = 7) was 1/7. For the same compound, the “Distant recurrence Heart, affected mice per group” value (mCRPC CWR-R1ca-Luc cells; PsA 20 mg/kg daily oral, n = 7) was 0/7, the “Distant recurrence Kidney, affected mice per group” value (mCRPC CWR-R1ca-Luc cells; PsA 20 mg/kg daily oral, n = 7) was 0/7 and the “Distant recurrence Liver, affected mice per group” value (mCRPC CWR-R1ca-Luc cells; PsA 20 mg/kg daily oral, n = 7) was 1/7. For the same compound, the “Distant recurrence Lung, affected mice per group” value (mCRPC CWR-R1ca-Luc cells; PsA 20 mg/kg daily oral, n = 7) was 0/7, the “Distant recurrence Spleen, affected mice per group” value (mCRPC CWR-R1ca-Luc cells; PsA 20 mg/kg daily oral, n = 7) was 0/7 and the “Locoregional recurrence, affected mice per group” value (mCRPC CWR-R1ca-Luc cells; PsA 20 mg/kg daily oral, n = 7) was “one and 1/7”. The “plasma detectability by validated HPLC method” value [1] was “not detectable in the plasma”, the “plasma detectability over time by HPLC” value ([2]; IV 50 mg/kg) was “undetectable by the HPLC method after 2 h” and the C0 ([2]; both sexes, Swiss albino, mouse, plasma, IV 50 mg/kg, read-out: initial concentration range) was 24600 to 34200 ng/mL. For the same compound, the AUC(0-t) ([2]; both sexes, Swiss albino, mouse, plasma, single IV 50 mg/kg, 8 h fasting, non-compartmental, mean, read-out: AUC0–t) was 19100 ng·h/mL, the AUC(0-t) ([2]; both sexes, Swiss albino, mouse, plasma, single IV 50 mg/kg, 8 h fasting, non-compartmental, mean, read-out: AUCt–∞) was 20900 ng·h/mL and the C0 ([2]; both sexes, Swiss albino, mouse, plasma, single IV 50 mg/kg, 8 h fasting, non-compartmental, mean, read-out: C0, initial plasma concentration) was 37300 ng/mL. The Vd ([2]; both sexes, Swiss albino, mouse, plasma, IV 50 mg/kg, read-out: average volume of distribution (Vd)) was 1.83 L/kg, the MRT ([2]; both sexes, Swiss albino, mouse, plasma, single IV 50 mg/kg, 8 h fasting, non-compartmental, mean, read-out: MRT, mean residence time) was 44.4 min and the half-life ([2]; both sexes, Swiss albino, mouse, plasma, single IV 50 mg/kg, 8 h fasting, non-compartmental, mean, read-out: T1/2, elimination half-life (converted)) was 31.8 min. The Vd ([2]; both sexes, Swiss albino, mouse, plasma, single IV 50 mg/kg, 8 h fasting, non-compartmental, mean, read-out: Vd, volume of distribution) was 1.83 L, the “AUMC, area under the moment curve” value ([2]; single IV 50 mg/kg, 8 h fasting, non-compartmental, mean) was 15410 ng·h/mL and the “decrease in body weight” value (Swiss albino mice; 500 mg/kg female dosing group, oral gavage, after 14 days) was 45%. For the same compound, the “major organ toxicity (liver, lung, heart, brain, kidneys)” value (Swiss albino mice; 14-day acute toxicity, 10, 250 and 500 mg/kg oral gavage) was “neither major organ toxicity” and the LD50 (Swiss albino mice; Up-and-Down acute toxicity procedure, oral, male and female Swiss albino mice) was over 550 mg/kg.
